Assay results reported in US12219938B2, “Mouse model of alcohol-induced liver cancer” (UNIVERSITY OF FLORIDA RESEARCH FOUNDATION, INCORPORATED, priority 2020, dated 2025).
Entries after “also recorded” stand apart in the source; their conditions may differ.

Legend:
senescent cells [1] = test: Senolytic activity in livers of aging and STZ/HFD-treated mice; format: in vivo; conditions: data not shown
liver fibrosis = test: Myofibroblast activation and liver fibrosis during EtOH-associated hepatocarcinogenesis in diabetic mice; format: in vivo
From the text: Fibrosis is characterized by myofibroblast cell activation and excessive collagen deposition. Extensive fibrotic reaction has been reported during NASH to HCC transition through the chemical and dietary intervention by STZ/HFD cotreatment.^4 We compared effects of 753B and control compound on liver fibrosis in the diabetic animals after 5-month drug administration. […] Decreased liver fibrosis was further verified after quantitative measurement of collagen content based on hydroxyproline assay in livers exposed to 753B administration (1031.8±116.4 versus 721.2±215.0) (FIG. 17D). Ishak score of the liver tissue in the livers were also analyzed. Grade 0 has no fibrosis. Grade 1 has fibrous expansion of some portal areas, with or without short fibrous septa. Grade 2 contains fibrous expansion of most portal areas, with or without short fibrous septa. Grade 3 has fibrous expansion of most portal areas with an occasional portal to portal bridging. Grade 4 contains fibrous expansion of portal areas with marked bridging including portal-portal and portal-central bridging. Grade 5 has marked portal-portal and portal-central bridging with occasional nodules (incomplete cirrhosis). Grade 6 has cirrhosis, probable or define.

[2] = tested on: SASP genes, liver cancer markers (Gpc3 and Afp), oncogenes (Myc, Tgfa); test: Western blotting and Q-RT-PCR of senescence, liver cancer marker and oncogene expression in STZ/EtOH-treated livers; format: in vivo, mice
From the text: (§1) PROTACs are bivalent small molecules containing a ligand that recognizes a target protein linked to another ligand that recruits a specific E3 ubiquitin ligase.^46,47 PROTAC binding induces proximity-induced ubiquitination of the target protein and its subsequent degradation by proteasomes. PROTACs act catalytically to induce protein degradation in a sub-stoichiometric manner. They result in less drug exposure and reduced toxicity compared with traditional inhibitors since their effect is not limited by equilibrium occupancy. […] PROTAC technology was used to develop a Bcl-xL specific PROTAC (Bcl-xL-P), which targets Bcl-xL to the E3 ligase cereblon (CRBN) or VHL. ES ligases cereblon and VHL are poorly expressed in platelets.^51-53Bcl-xL and Bcl-2 dual PROTACs/degraders that link to the VHL ligand and target Bcl-xL and Bcl-2 to VHL for ubiquitination and proteasome degradation were also developed. These Bcl-xL and Bcl-2 dual PROTACs/degraders are not only potent antitumor agents but also effective senolytic agents. PROTAC 753B targets Bcl-xL and Bcl-2 for proteasome degradation by linking to E3 ligase VHL. […] We examined the effect of 753B on EtOH-induced hepatocarcinogenesis. 753B was administered through intraperitoneal injection at 5 mg/kg body weight every other day starting at one week after alcohol consumption. In parallel experiments, vehicle-treated control animals received a compound that could not interact with the VHL E3 ligase. […] Magnetic resonance imaging (MRI) can allow precise and accurate quantification of tumour volume. Therefore, we performed abdominal Mill examinations before or after Gd-chelate-enhanced MRI. HCC lesions were identified based on hypointense signals in T1 and hyperintense signals in T2-weighted scan at 6 months after EtOH feeding in the diabetic murine livers. In contract few lesions were found in EtOH fed animals treated with 753B (FIG. 16D). These Mill signals matched morphological evaluations of liver cancers in the sacrificed animals (FIG. 16E). […] Ratio of liver to body weight is an indicator of hepatocyte proliferation during liver regeneration and liver cancer development.

Bcl-xL = biological target: T1, Bcl-xL (Mus musculus, UniProt Q64373); test: Western blotting of Bcl-xL in STZ/EtOH-treated diabetic livers; format: in vivo, mice; conditions: 5 mg/kg i.p. every other day, five-month administration, 6-month feeding of 5% ethanol, vs vehicle controls
T1 construct: from tissue; host or cells: liver of STZ/EtOH-treated diabetic mice
From the text: PROTACs are bivalent small molecules containing a ligand that recognizes a target protein linked to another ligand that recruits a specific E3 ubiquitin ligase.^46,47 PROTAC binding induces proximity-induced ubiquitination of the target protein and its subsequent degradation by proteasomes. PROTACs act catalytically to induce protein degradation in a sub-stoichiometric manner. They result in less drug exposure and reduced toxicity compared with traditional inhibitors since their effect is not limited by equilibrium occupancy. […] PROTAC technology was used to develop a Bcl-xL specific PROTAC (Bcl-xL-P), which targets Bcl-xL to the E3 ligase cereblon (CRBN) or VHL. ES ligases cereblon and VHL are poorly expressed in platelets.^51-53Bcl-xL and Bcl-2 dual PROTACs/degraders that link to the VHL ligand and target Bcl-xL and Bcl-2 to VHL for ubiquitination and proteasome degradation were also developed. These Bcl-xL and Bcl-2 dual PROTACs/degraders are not only potent antitumor agents but also effective senolytic agents. PROTAC 753B targets Bcl-xL and Bcl-2 for proteasome degradation by linking to E3 ligase VHL. […] We examined the effect of 753B on EtOH-induced hepatocarcinogenesis. […] Magnetic resonance imaging (MRI) can allow precise and accurate quantification of tumour volume. […]

senescent cells [3] = test: X-gal staining for SA-β-galactosidase activity in STZ/EtOH-treated livers; format: in vivo, mice; conditions: 753B/EtOH-treated diabetic livers vs vehicle-treated controls
EtOH-HCC = test: EtOH-induced hepatocarcinogenesis in STZ-treated diabetic mice (MRI and morphological evaluation of tumors); format: in vivo
From the text: Fujii et al. developed NASH-derived HCC model (STAM model) using STZ and HFD32.^15 This model replicates clinicopathological processes from fatty liver, NASH, fibrosis to HCC under diabetic background. The very high fat diet (HFD: 60% kcal fat) in combination with STZ also could induced morphologically detectable protrusion of liver tumor nodules at postnatal week 16. We have established a novel model in which ASH-associated liver cancer occurs in STZ-treated mice within 6 months after start of alcohol consumption (FIG. 2, 12). Mice were administered STZ on day two after birth. The STZ was administered in a dose sufficient to kill insulin-producing cells, and lead to diabetic mice. The streptozotocin-treated mice were then fed a Lieber-Decarli alcohol-liquid diet (EtOH) for four months starting at 8 weeks of age. Streptozotocin (200 μg/pup) was given through subcutaneous injection into mice at postnatal day 2. This dose was used to induce pre-diabetic condition in treated mice. This alcohol-liquid diet is from Bio-Sery (F1258) and EtOH is added into the liquid diets daily.
as §1

[4] = 5-month drug administration, vs controls
[5] = Q-RT-PCR, 753B/EtOH-treated diabetic livers vs vehicle-treated controls
[6] = STZ/EtOH-treated livers, 5 mice per group

T1 sequence (Q64373 whole entry): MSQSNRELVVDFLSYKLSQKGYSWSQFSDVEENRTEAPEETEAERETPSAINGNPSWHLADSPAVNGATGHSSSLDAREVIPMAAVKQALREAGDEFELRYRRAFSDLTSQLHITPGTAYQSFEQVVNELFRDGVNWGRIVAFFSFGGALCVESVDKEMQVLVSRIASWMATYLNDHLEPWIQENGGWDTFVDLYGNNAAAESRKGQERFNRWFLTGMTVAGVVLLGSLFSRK

Which “senolytic activity in livers” value (senescent cells [1]) does the source give for `Cc1ncsc1-c1ccc([C@H](C)NC(=O)[C@@H]2C[C@@H](O)CN2C(=O)[C@@H](NC(=O)CCCCCCC(=O)N2CCN(C[C@]3(C)CCC(c4ccc(Cl)cc4)=C(CN4CCN(c5ccc(C(=O)NS(=O)(=O)c6ccc(N[C@H](CCN7CCOCC7)CSc7ccccc7)c(S(=O)(=O)C(F)(F)F)c6)cc5)CC4)C3)CC2)C(C)(C)C)cc1` [753B] here?
The value was “high senolytic activity”.

And the “collagen deposition (Sirius red staining and Western analysis)” value (liver fibrosis; [4])?
Its value is “significantly lower; also recorded: little collagen deposition”.

And the “myofibroblast activation (aSMA immunofluorescent staining and Western blotting)” value (liver fibrosis; [4])?
The value was “significantly reduced; also recorded: few myofibroblast activation”.

What about the “mRNA of fibrosis-related markers (aSMA, Col1a1, Col1a2, Col4a1, Col4a2, Tgf-b2, Ctgf, Pdgf-b, Spp1)” value (liver fibrosis; Q-RT-PCR, diabetic animals after 5-month drug administration, vs control compound) of the same compound?
The value was “significant downregulation; also recorded: lower levels”.

And the “aSMA and pro-collagen type I proteins (Western blotting)” value (liver fibrosis; STZ/EtOH/753B-treated livers)?
The value was “low levels”.

And the “Ishak score of liver fibrosis” value (liver fibrosis; vs controls, 5-6 livers per group)?
The value was “significantly decreased; also recorded: lower levels”.

What about the “Gpc3 protein expression (Western blotting)” value ([2]; 5 mg/kg i.p. every other day, five-month administration, diabetic livers, 6-month feeding of 5% ethanol) of the same compound?
The value was “reduced Gpc3 expression; also recorded: blocked induction”.

What about the “mRNA levels of SASP genes (Cdkn2a/p16, Cdkn2b/p15, Ccl2, Ccl11, Serpine1/PAI1, Ccl12)” value [2, 5] of the same compound?
The value was “significant reduction; also recorded: inhibited mRNA levels”.

What about the “mRNA levels of liver cancer markers (Gpc3 and Afp)” value [2, 5] of the same compound?
The value was “significant reduction; also recorded: inhibited mRNA levels”.

And the “mRNA levels of oncogenes (Myc and Tgfa)” value [2, 5]?
The value was “significant reduction”.

And the “Bcl-xL accumulation (Western blotting)” value (Bcl-xL)?
Its value is “effectively inhibited Bcl-xL accumulation”.

And the “senescence by SA-β-gal activity (X-gal staining)” value (senescent cells [3])?
Its value is “little senescence; also recorded: inhibited senescent cell accumulation”.

What about the “formation of tumor nodules, number” value (EtOH-HCC; [6]) of the same compound?
The value was “efficiently inhibited”.

What about the “formation of tumor nodules, volume” value (EtOH-HCC; [6]) of the same compound?
Its value is “efficiently inhibited”.

What about the “ratio of liver to body weight” value (EtOH-HCC; STZ/EtOH-treated mice, 5 mice per group) of the same compound?
The value was “significantly decreased”.

And the “HCC lesions in MRI” value (EtOH-HCC; T1/T2-weighted scan at 6 months after EtOH feeding)?
The value was “few lesions”.

What about the “tumor size (diameter) of the majority of tumors” value (EtOH-HCC; morphological evaluation, STZ/EtOH-treated livers) of the same compound?
Its value is “small in size (<2 mM and 2-5 mm)”.
